# Experimental data from patent US11685738B2, “Fluorinated tetrahydronaphthyridinyl nonanoic acid derivatives and uses thereof” (OcuTerra Therapeutics, Inc., priority 2015, dated 2023).
# How the values were obtained:
# [1] = target: αvβ8 (Homo sapiens (Human), UniProt P06756+P26012); assay: αVβ8–LAP-TGF β1 integrin binding assay (integrin-coupled beads, flow cytometry); conditions: ligand LAP TGF-β1
# Description: (§1) All αV Integrins are known to bind to proteins with a RGD motif. Two RGD ligands were used in this study: Vitronectin (VN) as a ligand for αVβ3 and αVβ5 (Wayner et al., J. Cell Biol., 113 (4), 919-929, 1991), and LAP TGF-β1 (LAP1) as a ligand for αVβ6 and αVβ8 (Rognoni et al., Nat. Med., 20(4): 350-359, 2014). CWHM12 was used as a positive control for αVβ6 and αVβ8 (Henderson et al., Nat. Med. 19(12), 10.1038/nm.3282 2013), and Cilengitide as a positive control for αVβ3 and αVβ5 (Kumar et al., J. Pharmacol. Exp. Ther., 283, 843-853, 1997).
# (§2) The integrin coupled Dyna beads were allowed to interact with respective ligands. The integrin-ligand complex was detected with either Primary/Secondary Antibody conjugated with Fluorescein Isothiocyanate (FITC). For αVβ3 and αVβ5, Vitronectin was used as a ligand and a primary antibody conjugated with FITC (Anti-VN-FITC Ab) was used to detect the interaction. For αVβ6 and αVβ8, LAP-TGF (31 was used as ligand and a primary antibody against LAP1 (Anti-LAP1 Ab) and a secondary antibody conjugated with FITC were used to detect the αVβ6/αVβ8-LAP-TGF (31 complex. Fluorescence was measured by Flow Cytometry analysis.
# (§3) 5 mg of Dyna beads were weighed in a low protein binding microfuge (Eppendorf) tube (1.5 mL volume). The beads were re-suspended in 1 mL of Sodium Phosphate Buffer and vortexed at high speed for 30 seconds. The tube was then placed in a tube roller and tilt rotated for 10 min. After tilt rotation, the tube was placed on the Magna Spin and the beads were allowed to settle. The supernatant was discarded and the beads were washed three times. The beads were then re-suspended in 100 μL of Sodium Phosphate Buffer and 20 μL of washed beads were distributed into 5 low protein binding Eppendorf tubes (1 mg of beads in each tube). The beads were used for coupling integrins.
# (§4) 20 μL of (1 mg) of beads were mixed with 20 μL of integrins (20 μg) and 20 μL of 3 M Ammonium Sulfate solution (final concentration of ammonium sulfate was 1M) to achieve a Bead: Protein ratio of 5 mg:100 μg. The solution was mixed gently and placed in a tube roller and incubated at 37° C. for 16 hours.
# (§5) αVβ6/αVβ8 coupled beads were treated with the ligand LAP TGF-β1 (LAP1) at room temperature for 3 hours. The complex (Integrin+Ligand) was then treated with primary Ab (Anti-LAP1 Ab) overnight at 4° C. The whole complex (Integrin+Ligand+Primary Ab) was treated with Secondary Ab conjugated with FITC and incubated for 2 hours. The complex was analyzed by either plate reader or Flow Cytometer.
# (§6) 10 μL of αVβ6/αVβ8 coupled beads were taken for the experiment. The concentration of integrins was 10 nM. 10 μL of LAP1 was taken (10 nM for aVβ6 and 20 nM for aVβ8). Reaction between integrin coupled beads and LAP1 was considered as the full reaction, and reaction without LAP1 or a compound of the disclosure was considered as the blank reaction. The samples were incubated in low protein binding tubes at room temperature for 3 hours. The tubes were briefly spun and placed in a Magna spin. The supernatant was removed. The beads were washed with assay buffer twice to remove excess LAP1 and then re-suspended in […] assay buffer containing 1:200 anti-LAP1 Ab (primary Ab). The tubes were placed in a tube roller and incubated at 4° C. overnight. After a brief spin, the tubes were then placed in a Magna spin and the supernatant was removed. The beads were washed with assay buffer twice to remove excess primary Ab and then re-suspended in 150 μL of assay buffer containing 1:500 secondary Ab conjugated with FITC. The tubes were incubated at room temperature for 2 hours in a tube roller. After a brief spin, the tubes were placed in a Magna spin and the supernatant was removed. The beads were washed with assay buffer twice followed by PBS. The beads were then re-suspended in 300 μL of PBS and analyzed by a Flow Cytometer (BD FACSCalibur, Software—BDcell Quest Pro Version 6). […]
# [2] = target: αvβ6 (Homo sapiens (Human), UniProt P06756+P18564); assay: αVβ6–LAP-TGF β1 integrin binding assay (integrin-coupled beads, flow cytometry); conditions: for IC50: ligand LAP TGF-β1; for αvβ8/αvβ6: ratio of αvβ8 IC50 to αvβ6 IC50
# Description: as §1, §2, §3, §4, §5, §6
# [3] = target: αvβ3 (Homo sapiens (Human), UniProt P05106+P06756); assay: αVβ3–vitronectin integrin binding assay (integrin-coupled beads, flow cytometry); conditions: ligand vitronectin
# Description: as §1, §2, §3, §4
# αVβ3/αVβ5 coupled beads were treated with the ligand at room temperature for 3 hours. The complex (Integrin+Ligand) was then treated with Anti-Vitronectin Ab conjugated with FITC overnight at 4° C. The complex was analyzed by either plate reader or Flow Cytometer.
# 10 μL of αVβ3/αVβ5 coupled beads were taken for the experiment. The concentration of integrins was 10 nM. 10 μL of vitronectin was taken. The concentration was 10 nM. Reaction between integrin coupled beads and vitronectin was considered as the full reaction, and reaction without vitronectin or a compound of the disclosure was considered as the blank reaction. The samples were incubated in low protein binding tubes at room temperature for 3 hours. The tubes were briefly spun and placed in a Magna spin. The supernatant was then removed. The beads were washed with assay buffer twice to remove excess vitronectin and then re-suspended in 150 μL of assay buffer containing 1:500 Anti-vitronectin Ab conjugated with FITC. The tubes were placed in a tube roller and incubated at 4° C. overnight. […] The beads were then re-suspended in […] PBS and analyzed by a Flow Cytometer (BD FACSCalibur, Software—BD Cell Quest Pro Version 6).
# The samples were acquired using a BD FACSCalibur system and analyzed with BD Cell quest pro Version 6. […] Percentage of binding was calculated with respect to full reaction. […]
# [4] = system: bleomycin induced lung stiffness; assay: Bleomycin induced mouse pulmonary fibrosis model (lung stiffness, pressure-volume curves); type: in vivo, male C57BL/6 mice; conditions: for reversal of bleomycin induced lung stiffness, compared to the vehicle control group: all doses tested (10, 30, 100 mg/kg PO, day 0-21); for reversal of lung stiffness compared to positive control pirfenidone 100 mg/kg BID: mid- and high-dose groups (30 and 100 mg/kg PO)
# Experimental: Experimental animals are randomly and prospectively assigned to groups. On day 0 and prior to bleomycin induction, animals are administered the first dose of vehicle or a compound of the present disclosure. Following dosing, all animals are anesthetized. A small diameter cannula is inserted into the trachea and saline or bleomycin is slowly infused into the lungs. Group 1 serves as an untreated control group and receives saline only (no bleomycin) on day 0. The other groups receive bleomycin on day 0. Treatments with vehicle (e.g., methylcellulose), positive control (e.g., Pirfenidone), or a compound of the present disclosure are administered once or twice daily via oral gavage (PO). All animals are weighed and evaluated daily for respiratory distress.
# Prior to sacrifice, animals are anesthetized and once the animal is determined to be non-responsive a shallow incision is made. The trachea is isolated and a transverse cut is made between tracheal rings approximately half-way through the trachea. A tracheotomy is performed by the insertion of a cannula through the incision secured with surgical suture to the trachea. Following cannulation, the adapter end of the cannula is attached to the mechanical ventilator. The animal is ventilated and following an acclimation period, lung volume is standardized and each animal undergoes a measure of total respiratory impedance.
# Ninety-five male C57BL/6 mice were randomly and prospectively assigned to one group of fifteen animals and eight groups of ten animals each. On day 0 and at least one hour prior to bleomycin induction, animals were administered the first dose of vehicle or test-article (i.e., a compound of the present disclosure). At least one hour following dosing, all mice were anesthetized with isoflurane and placed on their backs lying on a table at approximately 60°. A small diameter cannula was inserted into the trachea, and saline or bleomycin was slowly infused into the lungs in a volume of 40 μL.
# Group 1 served as an untreated control group and received saline only (no bleomycin) on day 0. Groups 2-9 received 2.25 U/kg of bleomycin on day 0. The animals were then released into a recovery cage and allowed to wake up. From day 0 through day 21, treatments were administered once or twice daily via oral gavage (PO). Vehicle treated animals (Group 2) received 0.4% methylcellulose. Remaining animals received either Pirfenidone at 100 mg/kg (Group 3), Compound A15s at 100 mg/kg (Group 4), 30 mg/kg (Group 5) or 10 mg/kg (Group 6), or Compound A21 at 100 mg/kg (Group 7), 30 mg/kg (Group 8) or 10 mg/kg (Group 9).
# All animals were weighed and evaluated daily for respiratory distress (defined as an increase in respiratory rate and/or obvious respiratory effort). Animals with severe respiratory distress, or animals that lost greater than 30% of their total starting body weight, were euthanized within 2 hours of observation.
# On Day 21, prior to sacrifice, mice were anesthetized with IP injection of ketamine/xylazine (100 mg/kg, 10 mg/kg). Once the animal was determined to be non-responsive a shallow 2 cm vertical incision was made starting from 1 cm below the chin. The trachea was isolated and a transverse cut was made between tracheal rings approximately half-way through the trachea. A tracheotomy was performed by the insertion of an 18 gauge polyethylene cannula through the incision secured with surgical suture to the trachea. Following cannulation, the adapter end of the cannula was attached to the flexiVent mechanical ventilator. The animal was ventilated at 10 ml/kg tidal volume (VT), 150 breaths per minute and 3 cm H2O positive end expiratory pressure (PEEP). Following a 2-minute acclimation period, lung volume was standardized with 1, 6-second deep inflation to a pressure of 30 cm H2O followed by 2 pressure-volume measurements up to 40 ml/kg. […]
# αvβ8, sequence (P06756 31-992): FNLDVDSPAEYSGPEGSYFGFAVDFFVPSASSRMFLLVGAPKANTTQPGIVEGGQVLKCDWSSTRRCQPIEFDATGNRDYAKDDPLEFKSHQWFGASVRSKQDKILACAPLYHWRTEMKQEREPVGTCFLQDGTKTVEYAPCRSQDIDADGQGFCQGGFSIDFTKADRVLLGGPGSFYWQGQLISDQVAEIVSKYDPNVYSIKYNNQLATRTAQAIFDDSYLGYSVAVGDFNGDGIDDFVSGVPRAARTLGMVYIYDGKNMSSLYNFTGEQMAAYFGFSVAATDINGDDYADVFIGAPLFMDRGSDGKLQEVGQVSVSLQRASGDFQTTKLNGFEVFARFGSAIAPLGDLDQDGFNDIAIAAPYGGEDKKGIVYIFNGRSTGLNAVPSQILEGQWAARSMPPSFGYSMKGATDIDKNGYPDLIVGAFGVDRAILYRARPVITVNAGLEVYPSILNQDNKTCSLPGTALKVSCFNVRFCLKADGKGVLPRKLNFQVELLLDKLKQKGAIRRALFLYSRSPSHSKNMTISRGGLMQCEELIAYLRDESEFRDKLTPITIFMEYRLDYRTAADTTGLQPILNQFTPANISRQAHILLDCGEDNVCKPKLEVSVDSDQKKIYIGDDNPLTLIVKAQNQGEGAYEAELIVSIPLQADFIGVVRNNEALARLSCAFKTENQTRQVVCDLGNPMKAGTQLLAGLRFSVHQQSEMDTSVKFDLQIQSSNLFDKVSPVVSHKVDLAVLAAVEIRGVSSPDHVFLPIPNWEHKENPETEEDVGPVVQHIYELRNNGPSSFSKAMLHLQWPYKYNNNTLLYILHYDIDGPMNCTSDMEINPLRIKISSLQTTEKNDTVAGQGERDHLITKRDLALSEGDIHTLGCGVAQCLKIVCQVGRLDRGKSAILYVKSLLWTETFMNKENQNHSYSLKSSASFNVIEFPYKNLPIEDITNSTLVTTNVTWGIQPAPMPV
# αvβ8, sequence (P26012 43-684): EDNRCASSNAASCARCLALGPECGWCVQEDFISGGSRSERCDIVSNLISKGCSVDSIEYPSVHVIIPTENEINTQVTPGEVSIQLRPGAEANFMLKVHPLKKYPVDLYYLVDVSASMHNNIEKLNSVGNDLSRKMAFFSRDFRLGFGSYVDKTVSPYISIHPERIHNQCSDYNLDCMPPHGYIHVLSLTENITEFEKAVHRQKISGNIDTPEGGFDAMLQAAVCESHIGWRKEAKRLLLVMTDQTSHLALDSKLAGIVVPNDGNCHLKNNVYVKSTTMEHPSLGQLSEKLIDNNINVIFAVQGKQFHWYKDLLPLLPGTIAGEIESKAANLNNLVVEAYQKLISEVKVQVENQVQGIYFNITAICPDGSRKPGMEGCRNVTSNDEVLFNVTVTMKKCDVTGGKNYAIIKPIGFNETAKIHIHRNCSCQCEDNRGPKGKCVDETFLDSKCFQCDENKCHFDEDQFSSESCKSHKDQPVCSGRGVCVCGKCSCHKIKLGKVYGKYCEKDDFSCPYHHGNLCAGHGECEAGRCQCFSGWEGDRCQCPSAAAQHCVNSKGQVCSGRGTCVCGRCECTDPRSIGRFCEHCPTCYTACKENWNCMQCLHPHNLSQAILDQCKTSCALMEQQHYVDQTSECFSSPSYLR
# αvβ6, sequence (P06756 31-992): as the sequence (P06756 31-992) above
# αvβ6, sequence (P18564 22-707): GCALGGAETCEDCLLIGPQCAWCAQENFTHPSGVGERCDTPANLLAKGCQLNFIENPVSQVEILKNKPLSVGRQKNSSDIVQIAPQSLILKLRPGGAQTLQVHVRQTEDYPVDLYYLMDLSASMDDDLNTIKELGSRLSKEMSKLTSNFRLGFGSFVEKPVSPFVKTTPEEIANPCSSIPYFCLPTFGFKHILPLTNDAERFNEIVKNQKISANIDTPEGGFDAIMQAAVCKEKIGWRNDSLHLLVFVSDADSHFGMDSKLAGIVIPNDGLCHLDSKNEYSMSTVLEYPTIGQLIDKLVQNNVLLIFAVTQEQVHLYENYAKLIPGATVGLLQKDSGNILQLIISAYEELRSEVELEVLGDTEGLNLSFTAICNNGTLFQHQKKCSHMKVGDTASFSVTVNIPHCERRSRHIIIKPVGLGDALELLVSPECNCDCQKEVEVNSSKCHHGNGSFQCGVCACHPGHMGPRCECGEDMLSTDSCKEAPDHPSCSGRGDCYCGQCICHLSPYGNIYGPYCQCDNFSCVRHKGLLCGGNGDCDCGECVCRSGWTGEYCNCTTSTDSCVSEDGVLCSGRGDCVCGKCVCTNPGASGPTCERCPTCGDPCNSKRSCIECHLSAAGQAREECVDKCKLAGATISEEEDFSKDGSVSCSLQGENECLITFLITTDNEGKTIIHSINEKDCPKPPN
# αvβ3, sequence (P06756 31-992): as the sequence (P06756 31-992) above
# αvβ3, sequence (P05106 27-718): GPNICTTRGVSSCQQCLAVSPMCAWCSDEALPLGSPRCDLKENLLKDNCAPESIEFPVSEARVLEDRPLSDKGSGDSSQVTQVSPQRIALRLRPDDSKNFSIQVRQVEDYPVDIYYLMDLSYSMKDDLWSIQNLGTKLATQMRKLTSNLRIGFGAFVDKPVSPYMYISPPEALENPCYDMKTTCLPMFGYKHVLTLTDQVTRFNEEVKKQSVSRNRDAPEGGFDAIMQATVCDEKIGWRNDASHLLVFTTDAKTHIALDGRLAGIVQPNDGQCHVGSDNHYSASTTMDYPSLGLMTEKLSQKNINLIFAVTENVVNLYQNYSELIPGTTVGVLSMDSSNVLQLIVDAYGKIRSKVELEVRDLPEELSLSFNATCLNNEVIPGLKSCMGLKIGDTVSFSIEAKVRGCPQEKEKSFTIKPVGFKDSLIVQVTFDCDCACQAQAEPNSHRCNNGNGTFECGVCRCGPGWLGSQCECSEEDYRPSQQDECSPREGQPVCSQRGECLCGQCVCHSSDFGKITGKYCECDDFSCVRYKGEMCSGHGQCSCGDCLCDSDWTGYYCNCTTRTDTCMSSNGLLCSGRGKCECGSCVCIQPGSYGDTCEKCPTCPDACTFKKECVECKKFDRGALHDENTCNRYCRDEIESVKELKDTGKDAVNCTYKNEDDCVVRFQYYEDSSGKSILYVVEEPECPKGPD
Compound,IC50 [1],IC50 [2],αvβ8/αvβ6 [2],IC50 [3],"reversal of bleomycin induced lung stiffness, mid- and high-dose groups ([4]; 30 and 100 mg/kg PO, day 0-21)","reversal of bleomycin induced lung stiffness, compared to the vehicle control group [4]",reversal of lung stiffness compared to positive control pirfenidone 100 mg/kg BID [4],lung stiffness compared to saline treated animal group (no bleomycin) ([4]; mid-dose group (30 mg/kg PO))
"O=C(O)CC(CCCCCCc1ccc2c(n1)NCCC2)c1cccc(C(F)(F)F)c1 (single isomer, unassigned) [Compound A21-2]",0.0503 µM,0.0046 µM,10.93,–,–,–,–,–
"O=C(O)CC(CCCCCCc1ccc2c(n1)NCCC2)c1cnc(C(F)(F)F)nc1 (centres unmarked) [Compound A2, 9-(5,6,7,8-tetrahydro-1,8-naphthyridin-2-yl)-3-(2-(trifluoromethyl)pyrimidin-5-yl)nonanoic acid]",0.0781 µM,0.0116 µM,6.71,0.009 µM,–,–,–,–
"O=C(O)CC(CCCCCCc1ccc2c(n1)NCCC2)c1cnc2cc(C(F)(F)F)ccc2c1 (centres unmarked) [Compound A7, 9-(5,6,7,8-tetrahydro-1,8-naphthyridin-2-yl)-3-(7-(trifluoromethyl)quinolin-3-yl)nonanoic acid]",0.0806 µM,0.0116 µM,6.93,–,–,–,–,–
O=C(O)CC(CCCCCCc1ccc2c(n1)NCCC2)c1cccc(C(F)(F)F)c1 (centres unmarked) [Compound A21],0.0882 µM,0.00764 µM,11.54,–,–,reversed bleomycin induced lung stiffness at all doses tested,"similar, if not better, reversal of bleomycin induced lung stiffness",–
"O=C(O)CC(CCCCCCc1ccc2c(n1)NCCC2)c1cc(Cl)cc(C(F)(F)F)c1 (centres unmarked) [Compound A24, 3-(3-chloro-5-(trifluoromethyl)phenyl)-9-(5,6,7,8-tetrahydro-1,8-naphthyridin-2-yl)nonanoic acid]",0.0354 µM,0.0175 µM,2.02,–,–,–,–,–
COc1ccc([C@H](CC(=O)O)N2CCN(CCCc3ccc4c(n3)NCCC4)C2=O)cn1 [Compound A30s],–,–,1.83,–,–,–,–,–

# More lines, in order of falling IC50 [1], values ahead:
IC50 [1],IC50 [2],αvβ8/αvβ6 [2],IC50 [3],Compound,"reversal of bleomycin induced lung stiffness, mid- and high-dose groups ([4]; 30 and 100 mg/kg PO, day 0-21)","reversal of bleomycin induced lung stiffness, compared to the vehicle control group [4]",reversal of lung stiffness compared to positive control pirfenidone 100 mg/kg BID [4],lung stiffness compared to saline treated animal group (no bleomycin) ([4]; mid-dose group (30 mg/kg PO))
0.0344 µM,0.0169 µM,2.04,–,O=C(O)CC(CCCCCCc1ccc2c(n1)NCCC2)c1cc(C(F)(F)F)ccc1F (centres unmarked) [Compound A28],–,–,–,–
0.024 µM,0.00825 µM,2.91,–,"O=C(O)CC(CCCCCCc1ccc2c(n1)NCCC2)c1cnc2cc(F)c(F)cc2c1 (centres unmarked) [Compound A6, 3-(6,7-difluoroquinolin-3-yl)-9-(5,6,7,8-tetrahydro-1,8-naphthyridin-2-yl)nonanoic acid]",–,–,–,–
0.0132 µM,0.0083 µM,1.59,–,"O=C(O)C[C@@H](c1ccc(OC(F)F)nc1)N1CCN(CCCc2ccc3c(n2)NCCC3)C1=O [Compound A1, (S)-3-(6-(difluoromethoxy)pyridin-3-yl)-3-(2-oxo-3-(3-(5,6,7,8-tetrahydro-1,8-naphthyridin-2-yl)propyl)imidazolidin-1-yl)propanoic acid]",–,–,–,–
0.00592 µM,0.00928 µM,0.64,–,"O=C(O)C[C@@H](c1cccc(C(F)(F)F)c1)N1CCN(CCCc2ccc3c(n2)NCCC3)C1=O [Compound A15s, (S)-3-(2-oxo-3-(3-(5,6,7,8-tetrahydro-1,8-naphthyridin-2-yl)propyl)imidazolidin-1-yl)-3-(3-(trifluoromethyl)phenyl)propanoic acid]",significant reversal of bleomycin induced lung stiffness,reversed bleomycin induced lung stiffness at all doses tested,superior to the positive control pirfenidone,indistinguishable from the saline treated animal group
